Measured values taken from patent US20220395539A1, “TRADITIONAL CHINESE MEDICINE COMPOSITION FOR TREATING PSORIASIS, PREPARATION METHOD THEREFOR AND USE THEREOF” (priority 2019, published 2022).

Tested on: mice psoriasis-like skin lesion model induced by imiquimod
Assay: mice psoriasis-like skin lesion model induced by imiquimod
Format: in vivo, C57BL/6 mice
Parameters: Pathological score Epidermal cell keratinization / Pathological score Dermal thickness / Pathological score Total score: scale not given here
Details: methotrexate 1 mg/kg
Experimental: II. Pharmacodynamic Experiment of the Medicine Composition of the Present Application on Mice Psoriasis-Like Skin Lesion Model Induced by Imiquimod. Researching subjects: […] (2015000562136). The mice were fed with standard diet and the animal room was kept at the temperature of 23±2° C. and the humidity of 40% to 70%. […] The medium-dosage group of 9-ingredient macules-eliminating prescription: clinical equivalent dose. The low-dosage group of 9-ingredient macules-eliminating prescription: the dosage in the low-dosage group was ¼ of that in the high-dosage group. [table] Modeling method and treatment: […] Clinical symptoms: observe any clinical symptoms of each animal at the beginning and during the experiment. Any abnormal response should be recorded. […] PASI method: photos of the skin lesions were taken every day, and the erythema, scales and infiltration thickening degree at the skin lesions were scored, and the three scores were added up to obtain the total scores. […] End of experiment: after the experiment, the animals were sacrificed by CO2 deep anesthesia, and the corresponding tissues were collected. Statistics of data: the experimental data are expressed by Mean±SD, and the data between two groups are tested by T test, P<0.05 is considered as significant difference.

[1] = Yujinyinxie tablet 0.72 g/kg, i.g. Qd
[2] = Yujinyinxie tablet 0.72 g/kg, i.g. Qd 7 days

effect on the weight compared with the model group (gavage 7 days, 9-ingredient 11.24, 5.62 and 2.81 g extract/kg): reduced the weight
BW Day l [1]: 20.29 ± 0.68 g
BW Day 8 [2]: 17.99 ± 2.71 g
SMILES: CN(Cc1cnc2nc(N)nc(N)c2n1)c1ccc(C(=O)N[C@@H](CCC(=O)O)C(=O)O)cc1 [Methotrexate, methotrexate]
Severity index Day 4 (total score of skin lesion, PASI method) [1]: 1.65 ± 0.58
Severity index Day 5 (total score of skin lesion, PASI method) [1]: 2.20 ± 0.48
Severity index Day 6 (total score of skin lesion, PASI method) [1]: 1.90 ± 0.39
Severity index Day 7 (total score of skin lesion, PASI method) [1]: 3.60 ± 0.63
Pathological score Dermal inflammatory cells infiltration degree [2]: 1.10 ± 0.32,
Pathological score Dermal thickness [2]: 1.50 ± 0.53
Pathological score Epidermal cell keratinization [2]: 1.60 ± 0.84
Pathological score Epidermal thickness [2]: 1.60 ± 0.52,
Pathological score Total score [2]: 5.80 ± 1.14
Severity index Day 8 (total score of skin lesion, PASI method) [2]: 3.05 ± 1.82
